Test results reported in patent publication US6624140B1, “Synthetic peptides with antimicrobial and endotoxin neutralizing properties for management of the sepsis syndrome” (Academisch Ziekenhuis Bij de Universiteit van Amsterdam …, priority 1997, dated 2003).
No end group written: not given here.

Assays:
[1] = Turbidity assay of endotoxin complexation; assay type: binding, Escherichia coli; conditions: 2-fold molar excess of synthetic peptide
Procedure: FIG. 2. Endotoxin complexation activity of the synthetic peptides. Peptides at concentrations of 100 to 600 μg/ml were incubated with E. coli D31m4 Re or J5 LPS at 100 μg/ml in a total volume of 100 μl pyrogen-free phosphate buffered saline (PBS) in plastic ELISA microtiter plates for 30 min at 23° C. The turbidity produced by the insoluble peptide-endotoxin complexes was measured at 340 nm. The values represent the mean of three determinations and were corrected for controls containing the same concentrations of endotoxin or peptide.
(§1) Double-immunodiffusion of the peptides of the invention against ‘rough’ R-type E. coli D31m4 Re-LPS (List Biological Laboratories Inc., Calif.) or the structurally more complex ‘smooth’ S-type E. coli 0111:B4 LPS (Sigma Chemical Co., Rockford, Ill.) was performed in 0.8% (w/v) agarose containing 50 mM Tris and 0.1% (w/v) Triton X100, pH 7.5. for 16 h at 20° C. PmB and BPI(85-102) were included as control compounds for comparative purposes. The microprecipitates formed were visualized by Coommassie brilliant blue staining. […] Since the amount of precipitate formed is a function of valency, the peptides of the invention appear to be capable of a high degree of intermolecular binding of LPS molecules via the Lipid A moieties. […] A turbidity assay was employed for a direct comparison of the endotoxin-binding activity or avidity of selected synthetic peptides according to the invention using the ‘rough’ serotypes E. coli Re or Rc (J5) LPS. PmB and BPI(85-102) were included as control compounds for comparative purposes. The degree of precipitation of endotoxin by the synthetic peptides according to the invention was determined by measurement of the optical density of insoluble complexes formed at 340 nm (FIG. 2). In most instances optimal complexation of Re or J5 LPS by the synthetic peptides of the invention was evident at a molar ratio of peptide to endotoxin of 1 to 2. The control BPI(85-102) peptide was required at a 4-fold molar excess for approximately the same degree of complexation. […] There was no significant difference between complexation of Re or the structurally more complex J5-LPS by the synthetic peptides. […] The Lipid A binding affinity of the synthetic peptides were directly compared in a solid-state endotoxin-binding assay. Binding characteristics of biotinylated derivatives of the synthetic peptides BP1, BP2, BP2.1 and the control peptide BPI(85-102) were determined on ELISA microtiter plates coated with E. coli D31m4 Lipid A. Specific binding of the biotinylated peptides to the immobilized Lipid A was determined by development with Streptavidin-HRP and 3, 5, 3′, 5′ tetra-methylbenzidine (TMB) substrate and expressed as the corrected optical density at 450 nm. […] The affinity of the novel synthetic peptide BP2 for endotoxin of increasing complexity as well as the effect of plasma on binding was examined with the use of the ELISA microplate assay.

TNF-α production [2] = test: TNF-α in whole blood ex vivo after pre-incubation of LPS with peptide; assay type: cell-based, human; conditions: 1 to 10 μg/ml pre-incubated with 1 ng/ml LPS, even at lowest concentration 1 μg/ml, 4 h at 37° C.
Procedure: FIG. 11. Effect of pre-incubation of E. coli 0111:B4 LPS with synthetic peptides or Polymyxin B on TNF-α levels in whole blood ex vivo. The indicated amounts of synthetic, control peptides or PmB were pre-incubated with E. coli 0111:B4 LPS at 1 ng/ml for […] at 23° C., added to whole blood containing heparin at 2 I.U/ml and the TNF-α concentrations determined after incubation for 4 h at 37° C. Each value is the mean of triplicate experiments. Controls only contained LPS.
In addition, the LPS-neutralizing activity of selected synthetic peptides of the invention were compared in a more complex environment of whole blood ex vivo to determine the effect of physiological concentrations of blood components such as plasma proteins, blood cells etc. on the detoxification efficacy. In pre-incubation experiments, concentrations of synthetic peptides, control peptide or PmB from 1 to 10 μg/ml were pre-incubated with 1 ng/ml E. coli 0111:B4 LPS in pyrogen-free saline for 30 min at 23° C., added to venous blood containing heparin at 2 I.U/ml as anti-coagulant and incubated for 4 h at 37° C. TNF-α concentrations were determined in appropriately diluted cell-free supernatants as described before.

TNF-α production [3] = test: TNF-α in whole blood ex vivo, peptide added before LPS challenge; assay type: cell-based, human; conditions: 2.5 to 20 μg/ml added 10 min before 1 ng/ml LPS
Procedure: FIG. 12. Effect of pre-challenge addition of synthetic peptides on TNF-a levels induced by E. coli 0111:B4 LPS in whole blood ex vivo. The synthetic peptides BP2, BP2.1 or BP2.2 were added to whole blood containing heparin at 2 I.U/ml at the concentrations indicated and incubated for 10 min at 37° C. TNF-α concentrations were measured after incubation for 4 h at 37° C. subsequent to addition of E. coli 0111:B4 LPS at 1 ng/ml. The values represent the means of triplicate experiments. Controls only contained added LPS.
To determine whether addition of synthetic peptide to whole blood ex vivo prior to endotoxin challenge was effective in endotoxin neutralization assayed in terms of cytokine production, a synthetic peptide of the invention BP2, and the analogues BP2.1 or BP2.2 were added at concentrations of 2.5 to 20 μg/ml to whole blood and incubated for 10 min at 37° C. prior to the addition of 1 ng/ml E. coli 0111:B4 LPS. TNF-α concentrations were determined as previously described. […] The structurally related LPS-binding synthetic peptide analogues BP2.1 and BP2.2 were ineffective in endotoxin neutralization under these conditions.

[4] = test system: Gram-negative and Gram-positive bacteria; test: Anti-microbial activity of analogues and further peptides (bacterium not specified); assay type: cell-based; conditions: even at the highest concentration tested (20 μg/ml)
Description: A peptide encompassing a selected LPS-binding domain from a well characterized human antiendotoxin protein, known as bactericidal/permeability increasing protein (BPI), from amino acids 85 to 102, denoted as BPI(85-102), was included for a direct comparison of the efficacy of the endotoxin-binding domain of a naturally occurring protein and the synthetic peptides of the invention. The amino acid sequence of the BPI(85-102) peptide is:
The BPI(85-102) reference peptide was synthesized as previously described for peptides of the invention and provided with a C-terminal Cys residue for the purpose of biotinylation as previously described. […] Incubation of various concentrations of the synthetic peptides according to the invention for a limited time period on the survival of both types of bacteria again illustrated their potent anti-microbial activity as opposed to that of the BPI(85-102) peptide (FIG. 1) with the sequence corresponding to that of the potential LPS binding domain of the native BPI protein. This is indicative of a broad specificity of the synthetic peptides, in keeping with the general bactericidal properties of this class of linear amphipathic α-helical peptides. […]

[5] = Solid-state Lipid A binding ELISA microplate assay; design: species or system Escherichia coli; conditions: biotinylated derivatives; immobilized E. coli D31m4 Lipid A; Scatchard plot
Procedure: FIG. 3. Lipid A binding affinity of the synthetic peptides. Plastic ELISA microtiter plates were coated with purified E. coli D31m4 Lipid A at 1 μg/ml. Incubations were for 20 min with the indicated concentrations of synthetic peptides BP1, BP2 or BP2.1 or control peptide BPI(85-102) followed by streptavidin-HRP at a dilution of 1 in 20 000. Washing steps to remove excess peptide or streptavidin were with 50 mM Tris buffer pH 7.4 containing 0.05% (v/v) Tween 20. Development was with TMB substrate for 10 min. The optical density (O.D) at 450 nm was measured with a microplate reader and values were corrected for non-specific binding which was generally between 5 and 10%. The plotted values are the corrected means of triplicate experiments.
as §1

[6] = Double-immunodiffusion against 0111:B4 LPS; assay type: binding, Escherichia coli; conditions: 0.8% agarose, 16 h at 20° C.; data not shown
Procedure: Double-immunodiffusion of the peptides of the invention against ‘rough’ R-type E. coli D31m4 Re-LPS (List Biological Laboratories Inc., Calif.) or the structurally more complex ‘smooth’ S-type E. coli 0111:B4 LPS (Sigma Chemical Co., Rockford, Ill.) was performed in 0.8% (w/v) agarose containing 50 mM Tris and 0.1% (w/v) Triton X100, pH 7.5. for 16 h at 20° C. PmB and BPI(85-102) were included as control compounds for comparative purposes. The microprecipitates formed were visualized by Coommassie brilliant blue staining. […] Since the amount of precipitate formed is a function of valency, the peptides of the invention appear to be capable of a high degree of intermolecular binding of LPS molecules via the Lipid A moieties. […] The degree of precipitation of endotoxin by the synthetic peptides according to the invention was determined by measurement of the optical density of insoluble complexes formed at 340 nm (FIG. 2). […] Binding characteristics of biotinylated derivatives of the synthetic peptides BP1, BP2, BP2.1 and the control peptide BPI(85-102) were determined on ELISA microtiter plates coated with E. coli D31m4 Lipid A. Specific binding of the biotinylated peptides to the immobilized Lipid A was determined by development with Streptavidin-HRP and 3, 5, 3′, 5′ tetra-methylbenzidine (TMB) substrate and expressed as the corrected optical density at 450 nm. […]

[7] = test system: IL-6 inducing ability of E. coli 0111:B4 LPS; test: Effect of heparin on neutralization of IL-6 inducing ability of LPS; assay type: cell-based, human; conditions: heparin 0.1 to 100 I.U/ml
Procedure: FIG. 10. Effect of heparin on the efficacy of neutralization of the IL-6 inducing ability of E. coli 0111:B4 LPS by synthetic peptide or Polymyxin B in whole blood diluted 1 in 10. Synthetic peptides at concentrations of 2 μg/ml or PmB at 1 μg/ml was pre-incubated for 30 min at 37° C. with E. coli 0111:B4 LPS at 1 ng/ml in RPMI medium containing heparin in the concentration range of 0.1 to 100 I.U/ml. The residual cytokine inducing ability of the treated endotoxin was determined in diluted whole blood containing heparin at 2 IU/ml after incubation for 16 h at 37° C. Each value is the mean of triplicate determinations corrected for background. Controls contained only LPS.
The endotoxin neutralizing activities of the synthetic peptides of the invention were evaluated by investigating the effect on LPS-stimulated release of the pro-inflammatory cytokines, tumor necrosis factor alpha (TNF-α), interleukin-6 (IL-6) or interleukin-8 (IL-8) in a well characterized in vitro human whole blood bioassay system. In one series of experiments, dilutions of E. coli 0111:B4 LPS from 0.2 to 1 ng/ml were pre-incubated with synthetic peptides at 10 μg/ml concentrations in RPMI medium for 30 min at 20° C. and added to diluted whole blood. Cytokine concentrations in the supernatants were determined after further incubation for 16 h at 37° C. in the presence of 5% CO2 by specific and sensitive ELISA kits (CLB, Amsterdam, The Netherlands). In another series of experiments, the effects of synthetic peptides at concentrations of 2,5, 5 and 10 μg/ml on IL-6 induction by 1 ng/ml 0111:B4 LPS was examined after simultaneous addition of synthetic peptide and LPS to diluted whole blood. […] The control peptide BPI(85-102) was ineffective in reducing cytokine production under these conditions even at a 4-fold higher concentration. This probably reflects the differences in binding affinity for Lipid A of BP1 and BP2 compared with the BPI(85-102) peptide of approximately 5 and 10-fold, respectively. An additional factor which may have influenced binding of the control peptide to endotoxin is the presence of heparin employed as an anti-coagulant at a concentration of […] in the assay system. […] On this basis, it was predicted that the extent of reduction of endotoxin neutralizing efficacy would be a function of the differences in affinity between peptides for endotoxin and heparin. To verify this hypothesis, a series of experiments to determine the effect of increasing heparin concentrations on the efficacy of endotoxin neutralization during pre-incubation of synthetic peptide and E. coli 0111:B4 LPS were performed. FIG. 10 illustrates a dose-dependent suppression of endotoxin neutralizing activity of the synthetic peptides by heparin as exemplified by a reduction of IL-6 inhibition. […]

[8] = comparison value; cited from earlier work

Row | Substance | avidity order (degree of insoluble peptide-endotoxin complex formation) [1] | inhibition of TNF-α production (TNF-α production [2]) | endotoxin neutralization (TNF-α production) (TNF-α production [3]) | anti-microbial activity [4] | apparent binding affinity Ka for Lipid A [5] [M⁻¹] | precipitation of 0111 LPS [6] | influence of heparin on LPS-neutralizing activity [7] | Ka for Lipid A of known LPS binding molecule [8]
1 | GKWKAFKKAAKKFAKKCS [BP2.2, analogue similar to the formula] | BP2.1>BP2.2>BP2>BP1>PmB >BPI(85-102) | no significant reduction | ineffective |  |  |  |  | 
2 | GKLKKKWKAAKKFLKKCS [BP1.1, analogue similar to the formula] |  |  |  | no detectable anti-microbial activity |  |  |  | 
3 | GKWKLFKKAAKKFLKKCS [BP2.1, analogue similar to the formula] | BP2.1>BP2.2>BP2>BP1>PmB >BPI(85-102) | no significant reduction | ineffective | no detectable anti-microbial activity | 4e+07 |  |  | 
4 | Polymyxin B [PmB, reference compound] | BP2.1>BP2.2>BP2>BP1>PmB >BPI(85-102) | almost complete inhibition |  |  |  | failed to precipitate | not influenced | 10^7 M^−1
